Tested on: A549 xenograft tumors
Test: A549 lung carcinoma xenograft model
Format: in vivo, CB-17 SCID mice
Experimental: The A549 cell line was derived from explant culture of alveolar carcinoma tissue from a person. The cells were grown in Ham's F12-K tissue culture media with 10% fetal calf serum and 1% penicillin/streptomycin. Cells were routinely trypsinized and passaged 1:10. Thirty-two (32) female CB-17 SCID mice (Charles River Labs strain code 236), aged 5 to 6 weeks were used with a mean pre-treatment body weight of 16.3 grams. Mice were divided into four (4) groups of eight (8) prior to the initiation of treatment based on tumor volume. On the day of implantation, cells were washed in PBS, trypsinized and resuspended in complete media to a density of 2×10^7 cells/mL prior to being mixed with an equal volume of Matrigel. This mixture was then inoculated subcutaneously into mice in a volume of 0.1 mL using a 23 G needle.
Animal weights and condition were recorded daily, and tumors were measured on Mondays, Wednesdays and Fridays with micro-calipers, and tumor volume was calculated as (length×width×width)/2.
Animals with weight loss of more than 20% of their starting weight were euthanized. Mice with weight loss of more than 15% of their starting weight were not treated again until weight loss recovered to less than 5% of their starting weight. Any animals with a tumor volume of more than 1500 mm^3 were euthanized.
Dosing solutions were prepared fresh on each day of dosing. Compound 2 was supplied as a lyophilized powder containing 69.61% Compound 2 with the balance made up of Pluronic F-68 and PVP K29/32. This was prepared by dissolving the lyophilized powder in sterile water. Cisplatin was dissolved at 5 mg/mL in DMSO and diluted 1:10 in sterile water for injection. All test articles were administered in a volume of 0.1 mL/10 g body weight.
Statistical differences between treatment groups were determined using Mann-Whitney Rank Sum or ANOVA tests with a critical value of 0.05.

O=C(/C=C\n1cnc(-c2cc(C(F)(F)F)cc(C(F)(F)F)c2)n1)NNC(=O)CN1CCOCC1 [Compound 2, (Z)-3-(3-(3,5-bis(trifluoromethyl)phenyl)-1H-1,2,4-triazol-1-yl)-N′-(2-morpholinoacetyl)acrylohydrazide]
tumor volume AUC compared to vehicle control (one-way ANOVA) (Compound 2 10 mg/kg PO, p=0.0005, 10 mg/kg): statistically significant difference
antitumor effect (Compound 2 orally, 5 and 10 mg/kg): had an antitumor effect at both 5 mg/kg and 10 mg/kg doses in a dose dependent manner

— US9096543B2, “Nuclear transport modulators and uses thereof” (Karyopharm Therapeutics Inc., priority 2012, dated 2015)
